In brackets after ≈: the same amount, converted by molar mass. Where two headings read alike, the source gives them in different places.
Key:
[1] = system: Bacillus subtilis (Bs); assay: MIC for Bacillus subtilis, nutrient agar; assay type: cell-based, Bacillus subtilis ATCC 8473; settings: 30° C., 48 hours, read-out: Minimum Inhibitory Concentration (MIC), Bs
Protocol: (§1) The minimum inhibitory concentration (MIC) for the compounds listed in Table I is determined for 9 bacteria, using nutrient agar; and 7 yeast and fungi, using malt yeast agar. A one percent solution of the test compound is prepared in a mixture of acetone and water.
(§2) Nutrient agar is prepared at pH 6.8, representing a neutral medium, and at pH 8.2, representing an alkaline medium. The nutrient agars are prepared by adding 23 g of nutrient agar to one-liter of deionized water. In addition, the alkaline medium is prepared by adjusting a 0.04M solution of N-[tris-(hydroxymethyl)methyl]-glycine buffered deionized water with concentrated sodium hydroxide to a pH of 8.5.
(§3) The test tubes containing the malt yeast agar and the nutrient agar are cooled in a water bath until the temperature of the agar is 48° C. Then, an appropriate amount of the one percent solution of the test compound is added (except in the controls where no compound is added) to the respective test tubes so that the final concentrations are zero (0), 1.0, 2.5, 5, 10, 25, 50, 100, 250 and 500 parts per million of the test compound in each of the respective type of agar. The contents of each of the test tubes are then transferred to separate petri plates. After drying for 24 hours, the petri plates containing nutrient agar are inoculated with bacteria and those containing malt yeast agar are inoculated with yeast and fungi.
(§4) The inoculation with bacteria is accomplished by using the following procedure. Twenty-four hour-cultures of each of the bacteria are prepared by incubating the respective bacteria in tubes containing nutrient broth for 24 hours at 30° C. in a shaker. Dilutions of each of the 24 hour-cultures are made so that nine separate suspensions (one for each of the nine test bacteria) are made, each containing 10^8 colony forming units (CFU) per mL of suspension of a particular bacteria. Aliquots of 0.3 mL of each of the bacterial suspensions are used to fill the individual wells of Steer's Replicator. For each microbial suspension, 0.3 mL was used to fill three wells (i.e., three wells of 0.3 mL each) so that for the nine different bacteria, 27 wells are filled. The Steer's Replicator is then used to inoculate both the neutral and alkaline pH nutrient agar petri plates.
(§5) The inoculated petri plates are incubated at 30° C. for 48 hours and then read to determine if the test compound which is incorporated into the agar prevented growth of the respective bacteria.
(§6) Table II list the bacteria, yeast and fungi used in the MIC test described above along with their respective American Type Culture Collection (ATCC) identification numbers.

[2] = system: Saccharomyces cerevisiae; assay: MIC for Saccharomyces cerevisiae, malt yeast agar; assay type: cell-based, Saccharomyces cerevisiae ATCC 4105; settings: malt yeast agar, 30° C., 48 hours for yeast, read-out: Minimum Inhibitory Concentration (MIC), Sc
Protocol: as §1
(§7) Malt yeast agar is prepared by adding 3 g yeast extract and 45 g malt agar per liter of deionized water. The specific agar is dispensed in 30 mL aliquots into 25×200 mm test tubes, capped and autoclaved for 15 minutes at 115° C.
as §3
(§8) The inoculation with the yeast and fungi is accomplished as follows. Cultures of yeast and fungi are incubated for seven days on malt yeast agar at 30° C. These cultures are used to prepare suspensions by the following procedure. A suspension of each organism is prepared by adding 10 mL of sterile saline and 10 microliters of octylphenoxy polyethoxy ethanol to the agar slant of yeast or fungi. The sterile saline/octylphenoxy polyethoxy ethanol solution is then agitated with a sterile swab to suspend the microorganism grown on the slant. Each resulting suspension is diluted into sterile saline (1 part suspension: 9 parts sterile saline). Aliquots of these dilutions are placed in individual wells of Steer's Replicator and petri plates inoculated as previously described. The petri plates are incubated at 30° C. and read after 48 hours for yeast and 72 hours for fungi.
as §6

[3] = system: Staphylococcus aureus (Sa); assay: MIC for Staphylococcus aureus, nutrient agar; assay type: cell-based, Staphylococcus aureus ATCC 6538; settings: 30° C., 48 hours, read-out: Minimum Inhibitory Concentration (MIC), Sa
Protocol: as §1, §2, §3, §4, §5, §6

[4] = system: Proteus vulgaris (Pv); assay: MIC for Proteus vulgaris, nutrient agar; assay type: cell-based, Proteus vulgaris ATCC 881; settings: 30° C., 48 hours, read-out: Minimum Inhibitory Concentration (MIC), Pv
Protocol: as §1, §2, §3, §4, §5, §6

[5] = system: Penicillium chrysogenum (Pc); assay: MIC for Penicillium chrysogenum, malt yeast agar; assay type: cell-based, Penicillium chrysogenum ATCC 9480; settings: malt yeast agar; 30° C., 72 hours for fungi; read-out: Minimum Inhibitory Concentration (MIC), PC
Protocol: as §1, §7, §3, §8, §6

[6] = system: Aspergillus niger (An); assay: MIC for Aspergillus niger, malt yeast agar; assay type: cell-based, Aspergillus niger ATCC 16404; settings: malt yeast agar; 30° C., 72 hours for fungi; read-out: Minimum Inhibitory Concentration (MIC), An
Protocol: as §1, §7, §3, §8, §6

[7] = system: Candida albicans (Ca); assay: MIC for Candida albicans, malt yeast agar; assay type: cell-based, Candida albicans ATCC 10231; settings: malt yeast agar; 30° C., 48 hours for yeast; read-out: Minimum Inhibitory Concentration (MIC), Ca
Protocol: as §1, §7, §3, §8, §6

[8] = system: Pseudomonas aeruginosa (Pa); assay: MIC for Pseudomonas aeruginosa, nutrient agar; assay type: cell-based, Pseudomonas aeruginosa ATCC 10145; settings: 48 hours, read-out: Minimum Inhibitory Concentration (MIC), Pa
Protocol: as §1, §2, §3, §4, §5, §6

[9] = system: Aureobasidium pullulan (Ap); assay: MIC for Aureobasidium pullulan, malt yeast agar; assay type: cell-based, Aureobasidium pullulan ATCC 16622; settings: malt yeast agar; 30° C.; 48 hours for yeast and 72 hours for fungi; read-out: Minimum Inhibitory Concentration (MIC), Ap
Protocol: as §1, §7, §3, §8, §6

[10] = system: Klebsiella pneumonias (Kp); assay: MIC for Klebsiella pneumonias, nutrient agar; assay type: cell-based, Klebsiella pneumonias ATCC 8308; settings: 30° C., 48 hours, read-out: Minimum Inhibitory Concentration (MIC), Kp
Protocol: as §1, §2, §3, §4, §5, §6

[11] = system: Escherichia coli (Ec); assay: MIC for Escherichia coli, nutrient agar; assay type: cell-based, Escherichia coli ATCC 11229; settings: 30° C., 48 hours, read-out: Minimum Inhibitory Concentration (MIC), Ec
Protocol: as §1, §2, §3, §4, §5, §6

[12] = system: Fusarium oxysporum (Fo); assay: MIC for Fusarium oxysporum, malt yeast agar; assay type: cell-based, Fusarium oxysporum ATCC 48112; settings: malt yeast agar; 30° C., 72 hours for fungi; read-out: Minimum Inhibitory Concentration (MIC), Fo
Protocol: as §1, §7, §3, §8, §6

[13] = system: Enterobacter aerogenes (Ea); assay: MIC for Enterobacter aerogenes, nutrient agar; assay type: cell-based, Enterobacter aerogenes ATCC 13048; settings: Klebsiella aerogenes, nutrient agar, 30° C., 48 hours, read-out: Minimum Inhibitory Concentration (MIC), Ea
Protocol: as §1, §2, §3, §4, §5, §6

[14] = system: Pseudomonas aeruginosa (PRD-10); assay: MIC for Pseudomonas aeruginosa PRD-10, nutrient agar; assay type: cell-based, Pseudomonas aeruginosa ATCC 15442; settings: 30° C., 48 hours, read-out: Minimum Inhibitory Concentration (MIC), PRD
Protocol: as §1, §2, §3, §4, §5, §6

[15] = system: Salmonella choleraesuis; assay: MIC for Salmonella choleraesuis, nutrient agar; assay type: cell-based, Salmonella choleraesuis ATCC 10708; settings: Salmonella enterica, 30° C., 48 hours, read-out: Minimum Inhibitory Concentration (MIC), SC
Protocol: as §1, §2, §3, §4, §5, §6

[16] = system: Trichoderma viride (Tv); assay: MIC for Trichoderma viride, malt yeast agar; assay type: cell-based, Trichoderma viride ATCC 8678; settings: malt yeast agar; 30° C., 72 hours for fungi; read-out: Minimum Inhibitory Concentration (MIC), Tv
Protocol: as §1, §7, §3, §8, §6

Compound | MIC ([1]; pH 6.8, nutrient agar) [µg/mL] | MIC ([1]; pH 8.2, nutrient agar) [µg/mL] | MIC [2] [µg/mL] | MIC ([3]; pH 6.8, nutrient agar) [µg/mL] | MIC ([3]; pH 8.2, nutrient agar) [µg/mL] | MIC ([4]; pH 6.8, nutrient agar) [µg/mL] | MIC ([4]; pH 8.2, nutrient agar) [µg/mL] | MIC [5] [µg/mL] | MIC [6] [µg/mL] | MIC [7] [µg/mL] | MIC ([8]; pH 8.2, 30° C.) [µg/mL] | MIC [9] [µg/mL] | MIC ([10]; pH 6.8, nutrient agar) [µg/mL] | MIC ([10]; pH 8.2, nutrient agar) [µg/mL] | MIC ([11]; pH 6.8, nutrient agar) [µg/mL] | MIC ([11]; pH 8.2, nutrient agar) [µg/mL] | MIC [12] [µg/mL] | MIC ([13]; pH 6.8) [µg/mL] | MIC ([13]; pH 8.2) [µg/mL] | MIC ([14]; pH 6.8, nutrient agar) [µg/mL] | other results
N#CC1=C(C#N)Sc2c(cnn(-c3ccccc3)c2=O)S1 [A, 5,6-Dihydro-5-oxo-6-phenyl-1,4-dithiino(2,3-d)pyridazine-2,3-dicarbonitrile] | 50 (≈ 161 µM) | 500 (≈ 1610 µM) | < 10 | 25 (≈ 80.6 µM) | < 10 | 50 (≈ 161 µM) | > 500 | 25 (≈ 80.6 µM) | 25 (≈ 80.6 µM) | 25 (≈ 80.6 µM) | > 500 | 25 (≈ 80.6 µM) | 50 (≈ 161 µM) | > 500 | 50 (≈ 161 µM) | > 500 | 25 (≈ 80.6 µM) | 250 (≈ 806 µM) | > 500 | 500 (≈ 1610 µM) | MIC ([8]; pH 6.8, 30° C.): 250 µg/mL (≈ 806 µM); MIC ([14]; pH 8.2, nutrient agar): > 500 µg/mL; MIC ([15]; pH 6.8, nutrient agar): 100 µg/mL (≈ 322 µM); MIC ([15]; pH 8.2, nutrient agar): > 500 µg/mL; MIC [16]: 25 µg/mL (≈ 80.6 µM)
N#CC1=C(C#N)Sc2c(cnn(-c3ccc(Cl)cc3)c2=O)S1 [D, 5,6-dihydro-6-(4-chlorophenyl)-5-oxo-1,4-dithiino-(2,3-d)-pyridazine-2,3-dicarbonitrile] | 25 (≈ 72.5 µM) | 250 (≈ 725 µM) | 10 (≈ 29 µM) | > 500 | > 500 | 100 (≈ 290 µM) | > 500 | 25 (≈ 72.5 µM) | 10 (≈ 29 µM) | 10 (≈ 29 µM) | > 500 | 10 (≈ 29 µM) | > 500 | > 500 | 100 (≈ 290 µM) | > 500 | 10 (≈ 29 µM) | > 500 | > 500 | 500 (≈ 1450 µM) | MIC ([8]; pH 6.8, 30° C.): > 500 µg/mL; MIC ([14]; pH 8.2, nutrient agar): > 500 µg/mL; MIC ([15]; pH 6.8, nutrient agar): 100 µg/mL (≈ 290 µM); MIC ([15]; pH 8.2, nutrient agar): > 500 µg/mL; MIC [16]: 25 µg/mL (≈ 72.5 µM)
N#CC1=C(C#N)Sc2c(cnn(-c3cccc(Cl)c3)c2=O)S1 [E, 5,6-dihydro-6-(3-chlorophenyl)-5-oxo-1,4-dithiino-(2,3-d)-pyridazine-2,3-dicarbonitrile] | 25 (≈ 72.5 µM) | 250 (≈ 725 µM) | 25 (≈ 72.5 µM) | 250 (≈ 725 µM) | > 500 | 500 (≈ 1450 µM) | > 500 | 25 (≈ 72.5 µM) | 50 (≈ 145 µM) | 25 (≈ 72.5 µM) | > 500 | 25 (≈ 72.5 µM) | > 500 | > 500 | 500 (≈ 1450 µM) | > 500 | 50 (≈ 145 µM) | > 500 | > 500 | > 500 | MIC ([8]; pH 6.8, 30° C.): > 500 µg/mL; MIC ([14]; pH 8.2, nutrient agar): > 500 µg/mL; MIC ([15]; pH 6.8, nutrient agar): > 500 µg/mL; MIC ([15]; pH 8.2, nutrient agar): > 500 µg/mL; MIC [16]: 100 µg/mL (≈ 290 µM)
N#CC1=C(C#N)Sc2c(cnn(-c3ccc(Cl)c(Cl)c3)c2=O)S1 [F, 5,6-dihydro-6-(3,4-dichlorophenyl)-5-oxo-1,4-dithiino-(2,3-d)-pyridazine-2,3-dicarbonitrile] | 100 (≈ 264 µM) | 500 (≈ 1320 µM) | 250 (≈ 659 µM) | 100 (≈ 264 µM) | 250 (≈ 659 µM) | > 500 | > 500 | 250 (≈ 659 µM) | 250 (≈ 659 µM) | 250 (≈ 659 µM) | > 500 | 100 (≈ 264 µM) | > 500 | > 500 | > 500 | > 500 | 500 (≈ 1320 µM) | > 500 | > 500 | > 500 | MIC ([8]; pH 6.8, 30° C.): > 500 µg/mL; MIC ([14]; pH 8.2, nutrient agar): > 500 µg/mL; MIC ([15]; pH 6.8, nutrient agar): > 500 µg/mL; MIC ([15]; pH 8.2, nutrient agar): > 500 µg/mL; MIC [16]: > 500 µg/mL
N#CC1=C(C#N)Sc2c(cnn(-c3ccc(Cl)cc3Cl)c2=O)S1 [G, 5,6-dihydro-6-(2,4-dichlorophenyl)-5-oxo-1,4-dithiino-(2,3-d)-pyridazine-2,3-dicarbonitrile] | 25 (≈ 65.9 µM) | 250 (≈ 659 µM) | 50 (≈ 132 µM) | 100 (≈ 264 µM) | 250 (≈ 659 µM) | 500 (≈ 1320 µM) | > 500 | 100 (≈ 264 µM) | 100 (≈ 264 µM) | 50 (≈ 132 µM) | > 500 | 50 (≈ 132 µM) | 250 (≈ 659 µM) | 500 (≈ 1320 µM) | 250 (≈ 659 µM) | > 500 | 100 (≈ 264 µM) | > 500 | > 500 | 500 (≈ 1320 µM) | MIC ([14]; pH 8.2, nutrient agar): > 500 µg/mL; MIC ([15]; pH 6.8, nutrient agar): 500 µg/mL (≈ 1320 µM); MIC ([15]; pH 8.2, nutrient agar): > 500 µg/mL; MIC [16]: 250 µg/mL (≈ 659 µM)

— patent US5488051A, “Substituted 5,6-dihydro-5-oxo-1,4-dithiino-(2,3-d)-pyridazine-2,3-dicarbonitriles, compositions containing them and their use as antimicrobials” (The Dow Chemical Company, priority 1994, dated 1996)
